From ChEMBL document CHEMBL3588759, “Structure-based design, synthesis and evaluation in vitro of arylnaphthyridinones, arylpyridopyrimidinones and their tetrahydro derivatives as inhibitors of the tankyrases” (Bioorg Med Chem, 2015) come the findings set out here.

The subject of one assay is HT-29. The experiment in a line: Antiproliferative activity against human HT-29 cells.
The nature of assay [1]: Antiproliferative activity against human FEK4 cells.
The target of assay [2] is T1, Poly [ADP-ribose] polymerase tankyrase-1 (Homo sapiens, UniProt O95271).
T1 sequence (O95271 whole entry): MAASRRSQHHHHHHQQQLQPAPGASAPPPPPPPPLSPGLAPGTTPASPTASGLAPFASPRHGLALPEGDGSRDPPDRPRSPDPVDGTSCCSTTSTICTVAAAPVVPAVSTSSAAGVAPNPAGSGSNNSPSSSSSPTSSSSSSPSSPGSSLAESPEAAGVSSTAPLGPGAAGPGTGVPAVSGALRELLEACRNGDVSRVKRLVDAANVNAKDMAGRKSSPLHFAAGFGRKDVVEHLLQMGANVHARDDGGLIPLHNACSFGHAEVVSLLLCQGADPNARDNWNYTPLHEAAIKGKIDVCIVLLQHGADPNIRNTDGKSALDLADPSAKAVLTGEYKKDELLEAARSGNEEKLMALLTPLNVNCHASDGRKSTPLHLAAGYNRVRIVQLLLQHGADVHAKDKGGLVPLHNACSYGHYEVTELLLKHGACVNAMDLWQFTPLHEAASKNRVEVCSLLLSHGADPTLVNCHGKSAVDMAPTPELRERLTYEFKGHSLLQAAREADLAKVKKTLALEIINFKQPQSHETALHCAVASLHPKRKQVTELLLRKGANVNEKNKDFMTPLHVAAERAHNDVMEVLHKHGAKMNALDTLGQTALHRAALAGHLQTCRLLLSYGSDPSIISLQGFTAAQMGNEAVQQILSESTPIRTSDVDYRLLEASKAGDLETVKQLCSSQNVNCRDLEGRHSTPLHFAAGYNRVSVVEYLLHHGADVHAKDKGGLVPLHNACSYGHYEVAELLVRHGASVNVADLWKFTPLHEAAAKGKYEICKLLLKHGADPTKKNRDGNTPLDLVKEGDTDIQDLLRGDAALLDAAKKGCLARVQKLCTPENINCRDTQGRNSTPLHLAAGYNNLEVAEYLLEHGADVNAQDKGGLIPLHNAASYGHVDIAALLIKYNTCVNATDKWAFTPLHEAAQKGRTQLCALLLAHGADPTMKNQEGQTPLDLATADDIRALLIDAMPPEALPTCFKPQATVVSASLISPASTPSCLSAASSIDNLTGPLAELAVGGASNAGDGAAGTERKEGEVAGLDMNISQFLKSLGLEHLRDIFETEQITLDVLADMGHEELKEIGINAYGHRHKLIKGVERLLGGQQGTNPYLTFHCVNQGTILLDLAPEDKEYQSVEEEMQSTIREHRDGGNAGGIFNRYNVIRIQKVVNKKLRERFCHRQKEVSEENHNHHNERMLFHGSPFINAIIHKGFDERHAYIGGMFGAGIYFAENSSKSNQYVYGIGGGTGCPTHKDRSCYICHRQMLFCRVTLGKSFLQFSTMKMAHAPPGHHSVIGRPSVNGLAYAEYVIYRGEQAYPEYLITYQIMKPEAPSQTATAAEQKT
The assay is described as follows: Inhibition of human TNKS1 catalytic activity.

Assay [3] has as its target T2, Poly [ADP-ribose] polymerase tankyrase-2 (Homo sapiens, UniProt Q9H2K2).
T2 sequence (Q9H2K2 whole entry): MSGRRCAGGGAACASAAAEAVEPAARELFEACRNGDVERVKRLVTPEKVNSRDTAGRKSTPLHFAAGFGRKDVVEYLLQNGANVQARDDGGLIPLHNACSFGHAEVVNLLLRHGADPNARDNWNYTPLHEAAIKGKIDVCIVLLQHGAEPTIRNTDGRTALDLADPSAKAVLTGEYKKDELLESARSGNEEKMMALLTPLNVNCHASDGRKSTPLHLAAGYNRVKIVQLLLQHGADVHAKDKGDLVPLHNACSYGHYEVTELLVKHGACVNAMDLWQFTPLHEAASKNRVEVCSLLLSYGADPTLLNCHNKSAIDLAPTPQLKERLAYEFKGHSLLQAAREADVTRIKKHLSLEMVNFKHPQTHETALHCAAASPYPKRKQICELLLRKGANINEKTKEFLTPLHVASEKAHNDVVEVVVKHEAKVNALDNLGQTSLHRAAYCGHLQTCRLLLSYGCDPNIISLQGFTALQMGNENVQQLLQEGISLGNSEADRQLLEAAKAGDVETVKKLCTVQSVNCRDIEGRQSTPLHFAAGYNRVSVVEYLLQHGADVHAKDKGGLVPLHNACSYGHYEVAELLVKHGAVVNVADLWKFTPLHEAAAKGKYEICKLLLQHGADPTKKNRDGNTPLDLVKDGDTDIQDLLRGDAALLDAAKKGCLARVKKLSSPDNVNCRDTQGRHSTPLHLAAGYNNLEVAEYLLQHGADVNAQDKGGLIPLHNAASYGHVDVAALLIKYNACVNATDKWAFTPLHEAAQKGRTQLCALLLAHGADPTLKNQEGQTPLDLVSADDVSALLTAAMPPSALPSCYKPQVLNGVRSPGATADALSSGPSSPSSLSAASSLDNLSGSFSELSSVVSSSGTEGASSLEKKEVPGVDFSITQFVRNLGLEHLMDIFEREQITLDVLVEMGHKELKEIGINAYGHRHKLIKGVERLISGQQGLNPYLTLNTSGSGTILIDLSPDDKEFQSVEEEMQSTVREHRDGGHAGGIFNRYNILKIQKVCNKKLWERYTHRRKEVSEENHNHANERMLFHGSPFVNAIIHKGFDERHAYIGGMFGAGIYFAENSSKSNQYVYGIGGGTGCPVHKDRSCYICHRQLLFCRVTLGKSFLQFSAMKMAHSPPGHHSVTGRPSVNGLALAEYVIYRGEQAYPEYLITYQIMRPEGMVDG
The assay is described as follows: Inhibition of human TNKS2 catalytic activity.

In assay [4] the target is Poly [ADP-ribose] polymerase 1 (Homo sapiens, UniProt P09874). The assay is described as follows: Inhibition of human PARP1.
Poly [ADP-ribose] polymerase 1, sequence (P09874 whole entry): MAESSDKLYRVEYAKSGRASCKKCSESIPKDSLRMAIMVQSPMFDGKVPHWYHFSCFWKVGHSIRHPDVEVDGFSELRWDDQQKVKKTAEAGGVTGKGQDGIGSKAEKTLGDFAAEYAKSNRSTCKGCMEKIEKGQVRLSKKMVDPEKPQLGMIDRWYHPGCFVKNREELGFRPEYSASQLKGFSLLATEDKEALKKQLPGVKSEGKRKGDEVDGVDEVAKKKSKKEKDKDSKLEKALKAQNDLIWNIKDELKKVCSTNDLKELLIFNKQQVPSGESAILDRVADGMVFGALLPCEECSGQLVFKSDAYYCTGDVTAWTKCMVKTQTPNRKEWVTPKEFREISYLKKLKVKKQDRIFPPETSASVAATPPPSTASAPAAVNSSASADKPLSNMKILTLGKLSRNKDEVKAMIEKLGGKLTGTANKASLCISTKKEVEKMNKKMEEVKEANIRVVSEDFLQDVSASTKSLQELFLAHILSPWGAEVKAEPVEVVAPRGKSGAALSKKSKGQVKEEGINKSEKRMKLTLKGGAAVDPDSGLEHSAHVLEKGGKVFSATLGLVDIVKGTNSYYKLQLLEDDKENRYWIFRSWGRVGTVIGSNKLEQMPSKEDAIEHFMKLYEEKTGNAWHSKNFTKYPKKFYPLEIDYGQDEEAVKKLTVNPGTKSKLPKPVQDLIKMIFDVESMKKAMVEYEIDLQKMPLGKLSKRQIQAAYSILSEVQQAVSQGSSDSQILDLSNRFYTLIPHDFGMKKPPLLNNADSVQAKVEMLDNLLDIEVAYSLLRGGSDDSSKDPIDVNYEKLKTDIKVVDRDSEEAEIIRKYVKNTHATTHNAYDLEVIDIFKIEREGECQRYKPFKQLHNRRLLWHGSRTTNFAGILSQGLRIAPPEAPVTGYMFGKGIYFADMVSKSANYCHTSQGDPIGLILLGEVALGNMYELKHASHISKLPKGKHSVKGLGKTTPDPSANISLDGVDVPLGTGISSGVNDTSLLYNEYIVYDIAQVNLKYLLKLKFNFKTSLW

Take `O=c1[nH]c(-c2ccccc2)cc2ccncc12`: the IC50 in the assay on HT-29 is greater than 500 µM; in assay [1] it was greater than 500 µM; in assay [2], 1.3 µM.
With `COc1ccc(-c2cc3c(c(=O)[nH]2)CCCN3C)cc1`, the IC50 in the assay with HT-29 is greater than 200 µM; in assay [1], greater than 200 µM; in assay [2], 0.0011 µM.
For `CN1CCCc2c1cc(-c1ccc(Cl)cc1)[nH]c2=O`, the half-inhibitory concentration (IC50) in the assay with HT-29 is 26 µM; in assay [1], greater than 500 µM; in assay [2], 0.021 µM.
Regarding `CN1CCCc2c1cc(-c1ccc(Br)cc1)[nH]c2=O`, the IC50 was 0.423 µM in assay [3]; 26 µM in the assay with HT-29; greater than 500 µM in assay [1]; 2 µM in assay [4]; 0.0061 µM in assay [2].
As for `O=c1[nH]c(-c2ccccc2)cc2ncccc12`, the results for the IC50 (in the assay on HT-29; in assay [1]; in assay [2]) were greater than 500 µM, greater than 500 µM and 5 µM, respectively.
On to `Cc1ccc(-c2cc3cnccc3c(=O)[nH]2)cc1`, for which the 50% inhibitory concentration (IC50) is 157 µM with HT-29, greater than 500 µM in assay [1] and 6.2 µM in assay [2].
Regarding `CN1CCCc2c1cc(-c1ccc(C(F)(F)F)cc1)[nH]c2=O`, the IC50 in the assay on HT-29 was greater than 200 µM; in assay [1], greater than 200 µM; in assay [2] it was 0.0015 µM.
With `CN1CCCc2c1cc(-c1ccccc1)[nH]c2=O`, the IC50 was greater than 500 µM with HT-29, greater than 500 µM in assay [1] and 0.097 µM in assay [2].
